35 molecules from ChEMBL document CHEMBL5584245, “Structure-activity relationship of dual inhibitors containing maleimide and imidazole motifs against glutaminyl cyclase and glycogen synthase kinase-3β” (Bioorg Med Chem Lett, 2024) can be followed below.

Test [1] has as its target Glutaminyl-peptide cyclotransferase (Homo sapiens, UniProt Q16769). As to the kind of experiment: Inhibition of glutaminyl cyclase (unknown origin).
Test [2] concerns the target Glycogen synthase kinase-3 beta (Homo sapiens, UniProt P49841). Description: Inhibition of GSK-3beta (unknown origin).

Glutaminyl-peptide cyclotransferase, sequence (Q16769 whole entry): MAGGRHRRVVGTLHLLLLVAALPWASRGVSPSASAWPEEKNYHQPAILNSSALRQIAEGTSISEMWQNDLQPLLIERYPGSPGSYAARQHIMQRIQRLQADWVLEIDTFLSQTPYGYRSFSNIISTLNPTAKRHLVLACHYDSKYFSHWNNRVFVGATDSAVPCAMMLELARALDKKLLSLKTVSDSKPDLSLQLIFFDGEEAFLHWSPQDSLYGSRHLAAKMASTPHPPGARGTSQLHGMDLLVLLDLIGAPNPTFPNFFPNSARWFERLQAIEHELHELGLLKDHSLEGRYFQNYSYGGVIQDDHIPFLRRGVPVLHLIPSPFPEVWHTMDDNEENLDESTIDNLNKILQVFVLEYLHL
Glycogen synthase kinase-3 beta, sequence (P49841 whole entry): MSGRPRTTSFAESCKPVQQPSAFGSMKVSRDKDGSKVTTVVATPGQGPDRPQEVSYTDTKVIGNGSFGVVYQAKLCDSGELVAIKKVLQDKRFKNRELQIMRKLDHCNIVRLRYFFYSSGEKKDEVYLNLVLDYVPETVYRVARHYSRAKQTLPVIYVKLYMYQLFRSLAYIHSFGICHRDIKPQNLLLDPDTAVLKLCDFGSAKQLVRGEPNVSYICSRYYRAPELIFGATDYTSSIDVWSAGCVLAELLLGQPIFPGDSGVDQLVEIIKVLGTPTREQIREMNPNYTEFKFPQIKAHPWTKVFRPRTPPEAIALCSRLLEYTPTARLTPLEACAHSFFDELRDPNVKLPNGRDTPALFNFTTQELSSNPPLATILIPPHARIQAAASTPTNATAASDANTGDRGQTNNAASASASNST

What is called IC50 is the midpoint of a concentration-inhibition curve. Low readings indicate higher potency, high ones lower potency. As for `COc1cc(C2=C(c3cn(CCCn4cncc4C)c4ccccc34)C(=O)NC2=O)ccc1OCCCN1CCOCC1`, the IC50 was 7020 nM in test [1] and 89 nM in test [2].

Regarding `Cc1cncn1CCCn1cc(C2=C(c3ccc(OCCCCN4CCN(c5ccccc5)CC4)cc3)C(=O)NC2=O)c2ccccc21`, the IC50 in test [1] amounted to 7630 nM; in test [2] it was 200 nM.

For `COc1cc(C2=C(c3cn(CCCn4cncc4C)c4ccccc34)C(=O)NC2=O)ccc1OCCCCN1CCCCC1`, the results for the IC50 in test [1] and in test [2] were 830 nM and 64 nM, respectively.

For the molecule `CCCOc1ccc(C2=C(c3cn(CCCn4cncc4C)c4ccccc34)C(=O)NC2=O)cc1`, the IC50 in test [1] is 20000 nM; in test [2], 150 nM.

For `COc1cc(C2=C(c3cn(CCCn4cncc4C)c4ccccc34)C(=O)NC2=O)ccc1OCCCc1ccccc1`, the IC50 was found to be 18100 nM in test [1] and 177 nM in test [2].

On to `Cc1cncn1CCCn1cc(C2=C(c3ccc(OCCCCc4ccccc4)cc3)C(=O)NC2=O)c2ccccc21`, for which the IC50 in test [1] was determined as 6990 nM; in test [2], 192 nM.

For `CCCCOc1ccc(C2=C(c3cn(CCCn4cncc4C)c4ccccc34)C(=O)NC2=O)cc1`, the figures for the 50% inhibitory concentration (IC50) in test [1] and in test [2] were 10200 nM and 53 nM, respectively.

Take `Cc1cncn1CCCn1cc(C2=C(c3ccc(OCCCCN4CCCC4)cc3)C(=O)NC2=O)c2ccccc21`: the IC50 worked out at 1080 nM in test [1] and 93 nM in test [2].

With `Cc1cccc(C2=C(c3cn(CCCn4cncc4C)c4ccccc34)C(=O)NC2=O)c1`, the IC50 is 6230 nM in test [1] and 103 nM in test [2].

For the molecule `Cc1cncn1CCCn1cc(C2=C(c3ccc(OCCCN4CCOCC4)cc3)C(=O)NC2=O)c2ccccc21`, the half-maximal inhibitory concentration (IC50) came out at 1510 nM in test [1] and 178 nM in test [2].

Turning to `Cc1cncn1CCCn1cc(C2=C(c3ccc(OCCCn4ccnc4)cc3)C(=O)NC2=O)c2ccccc21`, the IC50 came to 15000 nM in test [1] and 104 nM in test [2].

Regarding `COc1cccc(C2=C(c3cn(CCCn4cncc4C)c4ccccc34)C(=O)NC2=O)c1`, the figures for the IC50 in test [1] and in test [2] were 6320 nM and 55 nM, respectively.

On to `Cc1cncn1CCCn1cc(C2=C(c3ccc(OCCCN4CCN(c5ccccc5)CC4)cc3)C(=O)NC2=O)c2ccccc21`, for which the values for the IC50 in test [1] and in test [2] were 9550 nM and 197 nM, respectively.

For `Cc1cncn1CCCn1cc(C2=C(c3ccc(F)cc3)C(=O)NC2=O)c2ccccc21`, the 50% inhibitory concentration (IC50) in test [1] was 3220 nM; in test [2] it was 102 nM.

Take `Cc1cncn1CCCn1cc(C2=C(c3ccccc3)C(=O)NC2=O)c2ccccc21`: the IC50 in test [1] came to 2300 nM; in test [2], 14 nM.

Consider `Cc1cncn1CCCn1cc(C2=C(c3ccc(OCCCc4ccccc4)cc3)C(=O)NC2=O)c2ccccc21`, for which the IC50 in test [1] came out at 7970 nM; in test [2] it was 182 nM.

On to `Cc1ccccc1C1=C(c2cn(CCCn3cncc3C)c3ccccc23)C(=O)NC1=O`, for which the IC50 came to 1760 nM in test [1] and 59 nM in test [2].

Take `Cc1cncn1CCCn1cc(C2=C(c3cccc([N+](=O)[O-])c3)C(=O)NC2=O)c2ccccc21`: the IC50 in test [1] worked out at 6130 nM; in test [2] it was 47 nM.

As to `COc1ccccc1C1=C(c2cn(CCCn3cncc3C)c3ccccc23)C(=O)NC1=O`, the results for the IC50 in test [1] and in test [2] were 1710 nM and 23 nM, respectively.

For `Cc1cncn1CCCn1cc(C2=C(c3ccc(OCCCCn4ccnc4)cc3)C(=O)NC2=O)c2ccccc21`, the values for the IC50 in test [1] and in test [2] were 11200 nM and 133 nM, respectively.

Consider `Cc1cncn1CCCn1cc(C2=C(c3ccc(OCCCCN4CCCCC4)cc3)C(=O)NC2=O)c2ccccc21`, for which the IC50 in test [1] worked out at 2200 nM; in test [2], 68 nM.

As to `Cc1cncn1CCCn1cc(C2=C(c3ccc(OCCCN4CCCCC4)cc3)C(=O)NC2=O)c2ccccc21`, the IC50 in test [1] was 1120 nM; in test [2] it was 87 nM.

Turning to `COc1ccc(C2=C(c3cn(CCCn4cncc4C)c4ccccc34)C(=O)NC2=O)cc1OC`, the IC50 in test [1] was 4590 nM; in test [2], 36 nM.

For `Cc1cncn1CCCn1cc(C2=C(c3ccccc3F)C(=O)NC2=O)c2ccccc21`, the IC50 came out at 2760 nM in test [1] and 29 nM in test [2].

`Cc1cncn1CCCn1cc(C2=C(c3cccc(F)c3)C(=O)NC2=O)c2ccccc21`: the values for the IC50 in test [1] and in test [2] were 10800 nM and 64 nM, respectively.

Turning to `Cc1cncn1CCCn1cc(C2=C(c3ccc(OCCCN4CCCC4)cc3)C(=O)NC2=O)c2ccccc21`, the values for the IC50 in test [1] and in test [2] were 3920 nM and 162 nM, respectively.

Regarding `Cc1cncn1CCCn1cc(C2=C(c3ccc(OCCCCN4CCOCC4)cc3)C(=O)NC2=O)c2ccccc21`, the results for the IC50 in test [1] and in test [2] were 2210 nM and 57 nM, respectively.

Regarding `Cc1cncn1CCCn1cc(C2=C(c3ccc(OCCCN4CCN(C)CC4)cc3)C(=O)NC2=O)c2ccccc21`, the IC50 turned out to be 1300 nM in test [1] and 74 nM in test [2].

Regarding `Cc1cncn1CCCn1cc(C2=C(c3ccccc3[N+](=O)[O-])C(=O)NC2=O)c2ccccc21`, the concentration for half-maximal inhibition (IC50) in test [1] came to 1220 nM; in test [2], 2 nM.

As for `Cc1cncn1CCCn1cc(C2=C(c3ccc([N+](=O)[O-])cc3)C(=O)NC2=O)c2ccccc21`, the values for the IC50 in test [1] and in test [2] were 1890 nM and 161 nM, respectively.

`COc1cc(C2=C(c3cn(CCCn4cncc4C)c4ccccc34)C(=O)NC2=O)ccc1OCCCCN1CCOCC1`: the results for the IC50 in test [1] and in test [2] were 13000 nM and 59 nM, respectively.

As to `COc1cc(C2=C(c3cn(CCCn4cncc4C)c4ccccc34)C(=O)NC2=O)ccc1OCCCCc1ccccc1`, the IC50 was found to be 26200 nM in test [1] and 91 nM in test [2].

In the case of `Cc1cncn1CCCn1cc(C2=C(c3ccc(OCCCCN4CCN(C)CC4)cc3)C(=O)NC2=O)c2ccccc21`, the figures for the IC50 in test [1] and in test [2] were 3240 nM and 15 nM, respectively.

In the case of `COc1cc(C2=C(c3cn(CCCn4cncc4C)c4ccccc34)C(=O)NC2=O)ccc1OCCCN1CCCCC1`, the IC50 in test [1] stood at 1130 nM; in test [2], 51 nM.

`Cc1cncn1CCCn1cc(C2=C(c3cc(F)c(F)cc3F)C(=O)NC2=O)c2ccccc21`: the IC50 was found to be 2600 nM in test [1] and 122 nM in test [2].
